# From patent publication US10799467B2, “Use of the phytocannabinoid cannabidivarin (CBDV) in the treatment of epilepsy” (GW Pharma Limited, priority 2010, dated 2020)
# Marks after values point to notes of the source that are not given here.
# Key:
# [1] = test system: pilocarpine-induced seizures; assay: CBDV with standard anti-epileptic drugs in the pilocarpine model of epilepsy; assay type: in vivo
# From the text: These two drugs are representative of two classes of anti-convulsants which have different mechanisms of action.
# MES-induced seizure = assay: Maximal electroshock seizure (MES) model of epilepsy; assay type: in vivo, Mouse/ICR; details: for Incidence of Tonic convulsion: Table 10.2, 10 mice per group, vehicle 9/10
# Procedure: The vehicle used in this study was 2:1:17 (ethanol:Cremophor:0.9% ^w/v, NaCl). The test compounds used were cannabidiol (CBD) and cannabidivarin (CBDV). These were made to a solution at the highest concentration; these were then dissolved in ethanol before combination with Cremophor and 0.9% NaCl in the proportion described above. The CBD or CBDV were administered intraperitoneally at a volume of 10 ml/kg body weight. The SAED valproic acid (VBA) was dissolved in saline.
# Animal Species/Strain: Mouse/ICR, Microbiological grade: SPF, Supplier: SLC Japan, Inc. […] Temperature: 23±2° C., Humidity: 60±10%, Light conditions: 7 AM to 7 PM for the light period, 7 PM to 7 AM for the dark period. Chow and water: Free access to CRF-1 (Oriental Yeast Co, Ltd) and tap water.
# One day before each experiment, mice were weighed and randomized into several groups in each test. On the morning of the experiment day, body weight was measured in order to calculate the administration volume of each animal. Vehicle, CBD, CBDV or valproic acid sodium salt was interperitoneally administered 30 minutes before electric stimuli. Maximal electroshock seizures (MES) in mice was induced by a stimulator (UGO BASILE ECT UNIT 7801, Italia) using a current of 30 mA delivered with a pulse frequency of 100 Hz for 200 msec through earlap electrodes.
# All statistical analyses were performed using SAS Software for Windows, Release 9.1 (SAS Institute Japan). The difference of the number (hindlimb extension or deaths) in each group was assessed using two-tailed Fisher's exact test.
# motor function = assay: Linearly accelerating rotarod test of motor function; assay type: in vivo, rats; details: for time remaining on the rotarod (latency to fall): 60 minutes after administration, vehicle 111.6 seconds
# Procedure: Each animal received either CBDV (100 or 200 mg/kg, n=10 for each group) or vehicle (2:1:17 Cremophor:ethanol:saline [n=12] or saline [n=11]) on a given experimental day. Experimental test days were separated by a two day rest period to allow for clearance of previous compounds. The order of drug administration was randomised using a standard Latin square design.
# 60 minutes after CBDV or vehicle administration, animals were placed on a linearly accelerating rotarod (Panlab/Harvard Apparatus, Holliston, USA) that increased in speed from 4 to 40 rpm over a 300 second period. An accelerating protocol was employed to eliminate the need for habituation to the rotarod, minimising divergence in the results obtained for each animal owing to disproportionate improvements in performance. Each test ended when the animal fell from the rotarod, with each animal performing three accelerating rotarod runs per experimental day. Animals were allowed a 5 minute recovery between tests to prevent fatigue-induced declines in performance. Mean latency in seconds to fall from the rotarod was compared between vehicle control and CBDV groups to assess motor function.
# To assess whether there were significant effects on motor function between the two different vehicle treatments, we subjected the data to Mann-Whitney U test. Lack of significance in this analysis would allow us to combine vehicle groups thereby reducing duration of testing (i.e. each rat would undertake only one vehicle treatment test day rather than two). For analysis of CBDV effects on motor function, data were subjected to a between-subjects 1-way ANOVA with drug concentration as the main factor. In all cases, P≤0.05 was considered to be significant.
# [2] = Observation of side effects in all experiments with isolated CBDV and CBDV BDS; assay type: in vivo; details: all experiments using isolated CBDV and CBDV BDS
# [3] = CBDV 200 mg/kg with valproate at various doses
compound,measurement,setting,value
"C=C(C)[C@@H]1CCC(C)=C[C@H]1c1c(O)cc(CCC)cc1O [CBDV, Cannabidivarin]",seizure severity,[1]; CBDV 200 mg/kg with phenobarbital at various doses,significantly decreases
same,mortality (independent effect),[1]; [3],significant decrease
same,seizure severity (independent effect),[1]; [3],independent and positive effects
same,bilateral seizure incidence,"[1]; CBDV 200 mg/kg, particularly with high dose Valproate (250 mg/kg)",significantly decreased
same,CBDV interaction (alone) with clonic tonic seizure,"[1]; CBDV 200 mg/kg, valproate study",statistically significant
same,Incidence of Tonic convulsion,MES-induced seizure; 50 mg/kg i.p.,9/10
same,Incidence of Tonic convulsion,MES-induced seizure; 100 mg/kg i.p.,3/10*
same,Incidence of Tonic convulsion,MES-induced seizure; 200 mg/kg i.p.,3/10*
same,inhibition of the expression of hindlimb extension,MES-induced seizure; CBDV 100 and 200 mg/kg IP,significantly inhibited
same,time remaining on the rotarod (latency to fall),motor function; 100 mg/kg CBDV,86.6 s
same,time remaining on the rotarod (latency to fall),motor function; 200 mg/kg CBDV,110.0 s
same,effect on the latency to fall compared to vehicle,"motor function; CBDV at any dose (100, 200 mg/kg), P=0.253",no effect
same,notable side effects,[2],did not exhibit any notable side effects
